From publication PMC7839254 (FASEB journal : official publication of the Federation of …, 2021)
Residue numbers refer to the chain shown, from its start.

Assays:
Experiment in all cases: isothermal titration calorimetry
Type in all cases: binding
[1] = molecular target: T1, human DIPP1 (DIPP1 1-148) (Homo sapiens, UniProt O95989)
T1 sequence (O95989 1-148): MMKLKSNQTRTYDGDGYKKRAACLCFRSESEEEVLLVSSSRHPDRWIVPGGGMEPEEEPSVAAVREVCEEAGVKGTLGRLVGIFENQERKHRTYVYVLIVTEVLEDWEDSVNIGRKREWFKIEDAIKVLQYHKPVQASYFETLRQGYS

[2] = molecular target: T2, human DIPP1 (DIPP1 1-148) (Homo sapiens, UniProt O95989, K18A)
T2 sequence (O95989 1-148 K18A): T1 sequence (O95989 1-148) with K18A

[3] = molecular target: T3, human DIPP1 (DIPP1 1-148) (Homo sapiens, UniProt O95989, H42A/R45A)
T3 sequence (O95989 1-148 H42A/R45A): T1 sequence (O95989 1-148) with H42A, R45A

[4] = molecular target: T4, human DIPP1 (DIPP1 1-148) (Homo sapiens, UniProt O95989, H42A)
T4 sequence (O95989 1-148 H42A): T1 sequence (O95989 1-148) with H42A

[5] = molecular target: T5, human DIPP1 (DIPP1 1-148) (Homo sapiens, UniProt O95989, R41A)
T5 sequence (O95989 1-148 R41A): T1 sequence (O95989 1-148) with R41A

[6] = molecular target: T6, human DIPP1 (DIPP1 1-148) (Homo sapiens, UniProt O95989, R45A)
T6 sequence (O95989 1-148 R45A): T1 sequence (O95989 1-148) with R45A

Row | Compound | Kd [1] [nM] | Kd [2] [nM] | Kd [3] [nM] | Kd [4] [nM] | Kd [5] [nM] | Kd [6] [nM]
1 | O=P(O)(O)O[C@@H]1[C@@H](OP(=O)(O)O)[C@H](OP(=O)(O)OP(=O)(O)O)[C@@H](OP(=O)(O)O)[C@H](OP(=O)(O)OP(=O)(O)O)[C@@H]1OP(=O)(O)O [1,5-InsP8, 1,5-bis-diphosphoinositol 2,3,4,6-tetrakisphosphate] | 158 ± 9 | 4990 ± 620 | 1060 ± 90 | 510 ± 100 | 460 ± 50 | 360 ± 50
2 | O=P(O)(O)O[C@@H]1[C@@H](OP(=O)(O)OP(=O)(O)O)[C@H](OP(=O)(O)O)[C@@H](OP(=O)(O)O)[C@@H](O)[C@H]1OP(=O)(O)O [5-PP-InsP4, 5-diphosphoinositol 1,3,4,6-tetrakisphosphate] | 251 ± 31 |  |  |  |  | 
